What was measured:
GSK-3β = GSK-3β (Homo sapiens, UniProt P49841); assay: ADP Glo GSK-3β kinase assay; format: biochemical; settings: for IC50 / GSK-3β inhibition (in words): ADP Glo kinase assay; for IC50: n = 2 (14b n = 5, 24 n = 3), read-out: IC50 (µM) Mean ± SEM GSK-3β; for GSK-3β inhibition (in words): hit 1 from kinome-wide screening
Method: To extend the biological profile of this novel class of 7-chloro-9H-pyrimido[4,5-b]indole-based GSK-3β inhibitors, we tested the lead compound 14b for its ATP competition in our ADP Glo assay system.
ATP Binding Competition of Compound 14b
Compound 14b was analyzed for its competition with ATP in an ADP Glo GSK-3β assay. To
this end, a dilution series of 14b was incubated with 25 µM, 100 µM and 500 µM of ATP and
corresponding IC50 values were determined. Results and inhibition curves are listed in
Table S1. IC50 values for compound 14b in the ATP binding competition experiment.
ATP concentration [µM] GSK-3β
a IC50 values were determined in an ADP Glo kinase assay , n = 1; b n = 5.
Figure S3. Inhibition curves of compound 14b in the presence of 100 µM and 500 µM ATP.
(1 picture or pasted object on this page, not shown here)

JAK3 = target: T1, JAK3 (Homo sapiens, UniProt P52333); assay: JAK3 enzyme-linked immunosorbent assay (ELISA); format: biochemical
T1 sequence (P52333 1-1124): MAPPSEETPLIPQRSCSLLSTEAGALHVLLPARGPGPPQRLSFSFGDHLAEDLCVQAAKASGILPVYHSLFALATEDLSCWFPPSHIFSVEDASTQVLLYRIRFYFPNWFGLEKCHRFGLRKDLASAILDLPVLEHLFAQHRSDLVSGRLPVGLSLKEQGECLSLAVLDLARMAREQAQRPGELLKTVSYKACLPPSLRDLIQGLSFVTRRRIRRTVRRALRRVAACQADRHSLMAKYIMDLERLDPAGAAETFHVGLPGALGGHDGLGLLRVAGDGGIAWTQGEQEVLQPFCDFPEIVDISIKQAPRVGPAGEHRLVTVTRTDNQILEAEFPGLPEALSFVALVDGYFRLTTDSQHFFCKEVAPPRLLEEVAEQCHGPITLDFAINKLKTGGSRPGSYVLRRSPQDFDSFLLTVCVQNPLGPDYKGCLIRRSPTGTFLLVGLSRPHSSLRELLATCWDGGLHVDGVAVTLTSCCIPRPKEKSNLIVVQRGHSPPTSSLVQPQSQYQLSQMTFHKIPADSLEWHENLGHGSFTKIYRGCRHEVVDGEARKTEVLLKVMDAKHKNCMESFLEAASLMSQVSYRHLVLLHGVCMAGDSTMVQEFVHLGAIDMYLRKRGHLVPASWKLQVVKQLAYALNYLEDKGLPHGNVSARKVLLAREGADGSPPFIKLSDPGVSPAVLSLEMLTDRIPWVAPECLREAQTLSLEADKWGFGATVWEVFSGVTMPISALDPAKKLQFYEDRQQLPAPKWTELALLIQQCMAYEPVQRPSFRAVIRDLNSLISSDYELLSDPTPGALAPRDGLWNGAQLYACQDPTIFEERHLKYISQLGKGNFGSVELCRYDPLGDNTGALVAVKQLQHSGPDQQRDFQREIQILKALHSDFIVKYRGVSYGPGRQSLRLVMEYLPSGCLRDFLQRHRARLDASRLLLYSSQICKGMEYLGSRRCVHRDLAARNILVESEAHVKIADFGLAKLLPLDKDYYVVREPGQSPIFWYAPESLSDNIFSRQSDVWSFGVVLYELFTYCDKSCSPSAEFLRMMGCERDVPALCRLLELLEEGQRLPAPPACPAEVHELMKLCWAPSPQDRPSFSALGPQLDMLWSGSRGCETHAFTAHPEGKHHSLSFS
Method: Furthermore, 14b and 24 were examined for their inhibitory activity on the possible off-target JAK3, as this class of GSK-3β inhibitors is derived from the pan-JAK inhibitor tofacitinib.
JAK3 Inhibition by Compounds 14b and 24
Compound 14b and 24 were analyzed for their inhibitory activity on JAK3 in an enzyme -
linked immunosorbent assay (ELISA). Single point measurements at compound
concentrations of 5 µM were conducted .
Table S2. JAK3 inhibition of 14b and 24 in the ELISA.
Cpd. JAK3 inhibition [%] a […]

[1] = Metabolic stability in human liver microsomes (HLM); format: in vitro ADME; settings: after an incubation time of 120 min, substrate 100 µM
Method: In a HLM stability assay, 14b and 24 were intensively degraded during a timeframe of 120 min (25% and 8% remaining parent compound at the endpoint of the experiment, respectively; for details see Tables S3 and S4 as well as Figures S4 and S5, Supplementary Materials). The corresponding unsubstituted piperidines were observed as prominent metabolites.
Metabolism in Human Liver Microsomes (HLM) of Compounds 14b and 24
Microsomes from liver, pooled from human (male and female) (Lot: SLBQ7487V) were purchased from Merck (Schnelldorf, Germany). The substrate (compounds 14b and 24, respectively) (100 µM), an NADPH-regenerating syst em (5 mM Glucose-6-phosphate, 5 U/mL Glucose -6-phosphate dehydrogenase and 1 mM NADP +) and 4 mM MgCl2⋅6 H2O in 0.1 M Tris buffer (pH 7.4) were preincubated for 5 min at 37°C and 750 rpm on a shaker. The reaction was started by the addition of HLM and then split into aliquots (50 µL). The reaction was quenched at […] time points (0, 10, 20, 30, 60 and 120 min) by addition of 100 µL internal standard (30 µM in MeCN). The samples were vortexed for 30 s and centrifuged (19,800 relative centrifugal force/4°C/10 min). The supernatant was directly used for LC-MS analysis (see below). All incubations were conducted in triplicates. […]
The metabolite formation was analyzed with an Alliance 2695 Separations Module (Waters GmbH, Eschborn). […]

Sequence of GSK-3β (P49841 whole entry): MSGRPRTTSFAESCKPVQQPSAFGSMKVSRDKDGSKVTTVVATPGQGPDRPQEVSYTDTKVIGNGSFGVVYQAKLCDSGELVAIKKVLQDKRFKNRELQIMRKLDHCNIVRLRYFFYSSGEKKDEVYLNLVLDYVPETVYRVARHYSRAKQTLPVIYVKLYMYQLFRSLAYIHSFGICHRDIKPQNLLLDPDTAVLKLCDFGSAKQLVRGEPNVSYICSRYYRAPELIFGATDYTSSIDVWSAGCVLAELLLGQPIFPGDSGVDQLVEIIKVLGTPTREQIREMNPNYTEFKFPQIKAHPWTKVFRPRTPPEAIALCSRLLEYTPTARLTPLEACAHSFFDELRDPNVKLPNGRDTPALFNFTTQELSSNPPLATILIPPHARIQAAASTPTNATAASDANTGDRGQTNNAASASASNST

Row | IC50 (GSK-3β) | GSK-3β inhibition (in words) (GSK-3β) | SMILES | further results
1 | > 10 µM | dramatic decrease in activity | CN(c1ncnc2[nH]c3cc(Cl)ccc3c12)C1CCCN(CCC(N)=O)C1 (stereo not drawn) [Compound 14c, 3-(3-((7-Chloro-9H-pyrimido[4,5-b]indol-4-yl)(methyl)amino)piperidin-1-yl)propanamide] | 
2 | > 10 µM |  | CN(c1ncnc2[nH]c3cc(Cl)ccc3c12)C1CCCN(Cc2cccc(C#N)c2)C1 (stereo not drawn) [Compound 14j, 3-((3-((7-Chloro-9H-pyrimido[4,5-b]indol-4-yl)(methyl)amino)piperidin-1-yl)methyl)benzonitrile] | 
3 | 3.56 ± 0.664 µM | remarkably reduced GSK-3β inhibition | CN(C)CCCN1CCCC(N(C)c2ncnc3[nH]c4cc(Cl)ccc4c23)C1 (stereo not drawn) [Compound 14n, 7-Chloro-N-(1-(3-(dimethylamino)propyl)piperidin-3-yl)-N-methyl-9H-pyrimido[4,5-b]indol-4-amine] | 
4 | 1.54 ± 0.284 µM |  | CN(c1ncnc2[nH]c3cc(Cl)ccc3c12)C1CCCN(CCC#N)CC1 (stereo not drawn) [Compound 16, 3-(4-((7-Chloro-9H-pyrimido[4,5-b]indol-4-yl)(methyl)amino)azepan-1-yl)propanenitrile] | 
5 |  | single-digit micromolar range | C[C@@H]1CCN(C(=O)CC#N)C[C@@H]1N(C)c1ncnc2[nH]c3cc(Cl)ccc3c12 [Compound 1, 3-((3R,4R)-3-((7-Chloro-9H-pyrimido[4,5-b]indol-4-yl)(methyl)amino)-4-methylpiperidin-1-yl)-3-oxopropanenitrile] | 
6 | 1.86 ± 0.113 µM |  | CN(c1ncnc2[nH]c3cc(Cl)ccc3c12)C1CCCN(C(=O)CC#N)C1 (stereo not drawn) [Compound 14a, 3-(3-((7-Chloro-9H-pyrimido[4,5-b]indol-4-yl)(methyl)amino)piperidin-1-yl)-3-oxopropanenitrile] | 
7 | > 10 µM |  | CN(c1ncnc2[nH]c3cc(Cl)ccc3c12)C1CCCN(Cc2ccco2)C1 (stereo not drawn) [Compound 14h, 7-Chloro-N-(1-(furan-2-ylmethyl)piperidin-3-yl)-N-methyl-9H-pyrimido[4,5-b]indol-4-amine] | 
8 | 13.3 ± 4.39 µM |  | CN(c1ncnc2[nH]c3cc(Cl)ccc3c12)C1CCN(CCC#N)CC1 [Compound 17, 3-(4-((7-Chloro-9H-pyrimido[4,5-b]indol-4-yl)(methyl)amino)piperidin-1-yl)propanenitrile] | 
9 | > 10 µM | severe decrease in activity | CC(C)N1CCCC(N(C)c2ncnc3[nH]c4cc(Cl)ccc4c23)C1 (stereo not drawn) [Compound 14f, 7-Chloro-N-(1-isopropylpiperidin-3-yl)-N-methyl-9H-pyrimido[4,5-b]indol-4-amine] | 
10 | > 10 µM | inactive | CN(c1ncnc2[nH]c3cc(Cl)ccc3c12)C1CCCN(CCC(F)(F)F)C1 (stereo not drawn) [Compound 14k, 7-Chloro-N-methyl-N-(1-(3,3,3-trifluoropropyl)piperidin-3-yl)-9H-pyrimido[4,5-b]indol-4-amine] | 
11 | > 10 µM |  | CN(c1ncnc2[nH]c3cc(Cl)ccc3c12)C1CCCN(Cc2ccncc2)C1 (stereo not drawn) [Compound 14i, 7-Chloro-N-methyl-N-(1-(pyridin-4-ylmethyl)piperidin-3-yl)-9H-pyrimido[4,5-b]indol-4-amine] | 
12 | 0.13 ± 0.008 µM |  | N#CCCN1CC[C@@H]2CCN(c3ncnc4[nH]c5cc(Cl)ccc5c34)[C@@H]2C1 (racemic) [Compound 24, 3-(3aRS,7aSR)-(1-(7-Chloro-9H-pyrimido[4,5-b]indol-4-yl)octahydro-6H-pyrrolo[2,3-c]pyridin-6-yl)-propanenitrile] | increase in potency on GSK-3β (GSK-3β; compared to unrigidized counterpart 14b): 6 fold; inhibition of JAK3 (in words) (JAK3; ELISA): no significant inhibition; inhibition at 5 µM (JAK3; single point measurements at compound concentrations of 5 µM, n = 3): 31.8 ± 3.8%; Metabolic stability [%], remaining parent compound [1]: 8%
13 | > 10 µM | severe decrease in activity | CN(c1ncnc2[nH]c3cc(Cl)ccc3c12)C1CCCN(CC2CC2)C1 (stereo not drawn) [Compound 14m, 7-Chloro-N-(1-(cyclopropylmethyl)piperidin-3-yl)-N-methyl-9H-pyrimido[4,5-b]indol-4-amine] | 
14 | > 10 µM | dramatic decrease in activity | COC(=O)CCN1CCCC(N(C)c2ncnc3[nH]c4cc(Cl)ccc4c23)C1 (stereo not drawn) [Compound 14d, Methyl-3-(3-((7-chloro-9H-pyrimido[4,5-b]indol-4-yl)(methyl)amino)piperidin-1-yl)propanoate] | 
15 | > 10 µM | inactive | CN(c1ncnc2c1c1ccc(Cl)cc1n2C)C1CCCN(CCC#N)C1 (stereo not drawn) [Compound 14o, 3-(3-((7-Chloro-9-methyl-9H-pyrimido[4,5-b]indol-4-yl)(methyl)amino)piperidin-1-yl)propanenitrile] | 
16 | > 10 µM | inactive | CN(c1ncnc2[nH]c3cc(Cl)ccc3c12)C1CCCN(CC#N)C1 (stereo not drawn) [Compound 14l, 2-(3-((7-Chloro-9H-pyrimido[4,5-b]indol-4-yl)(methyl)amino)piperidin-1-yl)acetonitrile] | 
17 | 7.02 ± 1.08 µM |  | CN(c1ncnc2[nH]c3cc(Cl)ccc3c12)C1CCN(CCC#N)C1 (stereo not drawn) [Compound 15, 3-(3-((7-Chloro-9H-pyrimido[4,5-b]indol-4-yl)(methyl)amino)pyrrolidin-1-yl)propanenitrile] | 
18 | > 10 µM | severe decrease in activity | CCCN1CCCC(N(C)c2ncnc3[nH]c4cc(Cl)ccc4c23)C1 (stereo not drawn) [Compound 14e, 7-Chloro-N-methyl-N-(1-propylpiperidin-3-yl)-9H-pyrimido[4,5-b]indol-4-amine] | 
19 | > 10 µM | severe decrease in activity | CN(c1ncnc2[nH]c3cc(Cl)ccc3c12)C1CCCN(C2CCCC2)C1 (stereo not drawn) [Compound 14g, 7-Chloro-N-(1-cyclopentylpiperidin-3-yl)-N-methyl-9H-pyrimido[4,5-b]indol-4-amine] | 

Reference: paper PMC6630214, “Design, Synthesis and Biological Evaluation of 7-Chloro-9H-pyrimido[4,5-b]indole-based Glycogen Synthase Kinase-3β Inhibitors” (Molecules, 2019)
